We go through one compound from EP1143992B1, “THERAPEUTIC COMPOSITIONS CONTAINING GLUTATHIONE ANALOGS” (TELIK, INC., priority 1999, dated 2000).

Where two headings read alike, the source gives them in different places.

How the values of data set [1] were obtained: The lyophilization cycle involved rapid freezing of the sample (2.5 ml fill of 10 ml vial) to a sample temperature of -50°C, followed by lyophilization at a tray temperature of -35°C for 42 hours to remove primary water, and for 2 hours at 20°C to remove secondary water.
The MLVs may be passed (5-10x) through stacked polycarbonate filters (pore size of 80 nm) using an EXTRUDER (Lipex Biomembranes, Vancouver, Canada).

A short description of data set [2]: Particle size of lipid microspheres. To be noted: lipid microspheres after 1.2µm filter, 300 µg/mL. In kind it is physicochemical. How it is done:
Then 2.21 gm of glycerol and enough distilled water to bring the volume to 100 mL(approximately 90 mL) were added, followed by a rough emulsification by means of a homogenizer. The product is then further emulsified by means of a manton gaulin type homogenizer. […]

The conditions of data set [3]: Drug/Lipid 0.25, EPC/EPG (1/1), Sucrose 300 mM.
The test system of data set [4] is circulating neutrophil levels. To be noted: normal rats; liposomal formulation of Example 4, 35mg/kg, i.v., 5 daily injections; Figure 2. The text has this:
Blood samples were taken for measurement of neutrophil levels daily.

Data set [5] has as its system fluorouracil-induced neutropenia. The settings on record: rats; fluorouracil 125mg/kg intraperitoneally; liposomal formulation of Example 4, 35mg/kg, 8 daily intravenous injections; Figure 1. The protocol: Male CD rats (250-300g) were injected intraperitoneally with either the antineoplastic drug, fluorouracil (125mg/kg) or an equivalent volume of its vehicle (saline). […] Rats originally injected with saline rather than fluorouracil received saline intravenously (n = 7). Blood samples were taken for measurement of neutrophil levels prior to the fluorouracil and every 1 to 2 days thereafter for 14 days.

`CCOC(=O)C(N)CCC(=O)NC(CSCc1ccccc1)C(=O)N[C@@H](C(=O)OCC)c1ccccc1.Cl` (stereo partly shown) [Compound 9, γ-Glutamyl-S(benzyl)cysteinyl-R-phenyl glycine diethyl ester hydrochloride]: in data set [1] (ethanol dilution, Drug/Lipid 0.25 wt/wt, EPC, comparative example), the “Drug (mg/ml)” value was 16.2. mg/ml. For the same compound, the “precipitated form of the drug” value in data set [1] (removed by extrusion through 80 nm filters) is listed as less than 2%. Further, the “particles of final emulsion” value in data set [2] is recorded as “approximately 220 nM”. The Viscosity entry in data set [3] (Lyophilization Time 32 hr) was “Negligible”; in data set [3] (Lyophilization Time 40 hr) it was “Negligible”; in data set [3] (Lyophilization Time 44 hr), “Negligible”; in data set [3] (Lyophilization Time 54 hr) it was “Viscous”; in data set [3] (Lyophilization Time 59 hr), “Very Viscous”. Also, the circulating neutrophil levels entry in data set [4] is “increased”. Moreover, the “recovery from chemotherapy-induced neutropenia” value in data set [5] was “accelerated recovery”.
